{"source": "patent US20030008014A1", "about": "“Truncated apolipoprotein B-containing lipoprotein particles for delivery of compounds to tissues or cells” (priority 2001, published 2003)", "origin": "cited, not measured here", "key": {"breast tumor xenografts": {"tested_on": "breast tumor xenografts", "conditions": "two 10 mg/kg injections on days 1 and 4"}}, "data": [{"molecule": "CC(C)CCC[C@@H](C)[C@H]1CC[C@H]2[C@@H]3CC=C4C[C@@H](O)CC[C@]4(C)[C@H]3CC[C@]12C", "note": "[Free cholesterol, cholesterol]", "values": [{"measurement": "solubility in phospholipid disks", "result": "~30", "unit": "mole %"}]}, {"molecule": "CC(=O)O[C@H]1C(=O)[C@@]2(C)[C@H]([C@H](OC(=O)c3ccccc3)[C@]3(O)C[C@H](OC(=O)[C@H](O)[C@@H](NC(=O)c4ccccc4)c4ccccc4)C(C)=C1C3(C)C)[C@]1(OC(C)=O)CO[C@@H]1C[C@@H]2O", "note": "[paclitaxel]", "values": [{"measurement": "inhibition of tumor growth", "setting": "breast tumor xenografts", "result": "maximal inhibition of tumor growth"}]}]}
